Data on 1 cell line can be found in the supplement of paper PMC10307832.

Holding throughout (assay): relative viability (nuclei count vs DMSO), 5 days (fraction); higher = more cells survive
Compound in assay [1]: Cc1ccc(C(=O)Nc2cccc(C(F)(F)F)c2)cc1Nc1cncc(C(N)=O)c1 [ALW-II-49-7] + COc1cccc2cc(-c3nc([C@H]4CC[C@H](C(=O)O)CC4)n4ncnc(N)c34)[nH]c12 [OSI-027] (partner 0.5 µM)
Put shortly: (§1)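 A single step with final 0.05% Triton X-100, 1% formaldehyde and 1 ug/ml Hoechst fixed the cells and stained nuclei 5 days after treatment. Lung cancer cell lines in 1536-well plates had been treated by pin tool the day after seeding with one drug alone or a fixed anchor-drug dose plus five library-drug doses (not always all listed) in √10 steps, and nuclei were counted on 4× images. Relative viability is the ratio of nuclei in treated wells to nuclei in vehicle wells, taken as the median of duplicate plates.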

Compound in assay [2]: Cc1ccc(C(=O)Nc2cccc(C(F)(F)F)c2)cc1Nc1cncc(C(N)=O)c1 [ALW-II-49-7] + Cc1cc(Nc2cc(N3CCN(C)CC3)nc(Sc3ccc(NC(=O)C4CC4)cc3)n2)n[nH]1 [Tozasertib] (partner 0.1 µM)
The method, boiled down: as §1

Compound in assay [3]: C1CC1C(=O)NC2=NNC3=C2C=CC(=C3)C4=CC(=CC=C4)C(=O)NC5CC5 [XMD13-2] + CS(=O)(=O)N1CCN(Cc2cc3nc(-c4cccc5[nH]ncc45)nc(N4CCOCC4)c3s2)CC1 [Pictilisib] (partner 1 µM)
The method, boiled down:
as §1

Compound in assay [4]: C1CC1C(=O)NC2=NNC3=C2C=CC(=C3)C4=CC(=CC=C4)C(=O)NC5CC5 [XMD13-2] + CC(=O)Nc1cccc(-n2c(=O)n(C3CC3)c(=O)c3c(Nc4ccc(I)cc4F)n(C)c(=O)c(C)c32)c1 [Trametinib] (partner 0.02 µM)
Put shortly: as §1

For UMC-11, the relative viability in assay [1] (first compound 0.08 µM) was 0.499; in assay [1] (first compound 0.253 µM) it was 0.457; in assay [1] (first compound 0.8 µM) it was 0.487; in assay [1] (first compound 2.53 µM), 0.434; in assay [1] (first compound 8 µM) it was 0.485; in assay [2] (first compound 0.08 µM) it was 0.193. Further, the relative viability in assay [2] (first compound 0.253 µM) was found to be 0.202; in assay [2] (first compound 0.8 µM) it was 0.21; in assay [2] (first compound 2.53 µM), 0.186; in assay [2] (first compound 8 µM), 0.217; in assay [3] (first compound 0.05 µM), 0.943; in assay [3] (first compound 0.1581 µM) it was 0.8. Also, the relative viability was 0.704 in assay [3] (first compound 0.5 µM); 0.803 in assay [3] (first compound 1.581 µM); 0.71 in assay [3] (first compound 5 µM); 0.908 in assay [4] (first compound 0.05 µM); 0.708 in assay [4] (first compound 0.1581 µM); 0.726 in assay [4] (first compound 0.5 µM). In addition, the values for the relative viability in assay [4] (first compound 1.581 µM) and in assay [4] (first compound 5 µM) were 0.685 and 0.513, respectively.
